Results published in patent US20210161174A1, “FEED ADDITIVE FOR FARMED ANIMALS” (ADISSEO FRANCE S.A.S., priority 2018, published 2021).
Marks after values point to notes of the source that are not given here.

Tested on: wooden breast myopathies
Assay: Example 2: wooden breast assessment by expert panel at 42 d
Type: in vivo, Broiler Chicken (Cobb 500)
Conditions: for wooden breast means per treatment (WB): score scale WB0-WB4
Procedure: Study Animals: • Animal: Broiler Chicken • Breed/Strain: Cobb 500 • Description: Day-of-hatch male chicks, sexed at hatchery • Sex: Male
Processing: On day […] (12) birds are selected from each pen for processing (at 12 reps/trt: 576 birds in total; 144 birds/trt)
Wooden breast assessment was determined by an expert panel according to 5 levels: WB0, WB1, WB2, WB3, WB4 from no WB to severe WB.
Dietary Treatments • Control (NC, negative control without PQQ) • 0.2 ppm PQQ • 0.5 ppm PQQ • 1 ppm PQQ
Wooden Breast Scores were: WB 0—normal breast; WB 1—mild hardening in the upper; WB 2—moderate hardening in the upper and/or lower part of the fillet; WB 3—severe hardening; WB 4—severe hardening with hemorrhagic lesions, increased volume, and presence of yellow fluid.
Higher is the score per WB 3 and 4 categories, greater is the default. Conversely, for categories WB0 to WB2, higher is the score, better is the quality.
Wooden breast scores were: WB0—normal breast; WB1—mild hardening in the upper; WB 2—moderate hardening in the upper and/or lower part of the fillet; WB 3—severe hardening; WB 4—severe hardening with hemorrhagic lesions, increased volume, and presence of yellow fluid.

O=C(O)c1cc(C(=O)O)c2c(n1)C(=O)C(=O)c1cc(C(=O)O)[nH]c1-2 [PQQ, pyrroloquinoline quinone]
wooden breast myopathies occurrence, WB0 (0.2 ppm PQQ (T2)): 0.83% | wooden breast myopathies occurrence, WB1 (0.2 ppm PQQ (T2)): 2.78% | wooden breast myopathies occurrence, WB2 (0.2 ppm PQQ (T2)): 20.00^a % | wooden breast myopathies occurrence, WB3 (0.2 ppm PQQ (T2)): 49.16^a % | wooden breast myopathies occurrence, WB4 (0.2 ppm PQQ (T2)): 27.22% | wooden breast myopathies scores, WB0 (0.2 ppm PQQ (T2)): 0.08 | wooden breast myopathies scores, WB1 (0.2 ppm PQQ (T2)): 0.17 | wooden breast myopathies scores, WB2 (0.2 ppm PQQ (T2)): 1.17^b | wooden breast myopathies scores, WB3 (0.2 ppm PQQ (T2)): 2.92 | wooden breast myopathies scores, WB4 (0.2 ppm PQQ (T2)): 1.67 | wooden breast means per treatment (WB) (0.2 ppm PQQ (T2)): 2.92^a | wooden breast myopathies occurrence, WB0 (0.5 ppm PQQ (T3)): 0.00% | wooden breast myopathies occurrence, WB1 (0.5 ppm PQQ (T3)): 15.29% | wooden breast myopathies occurrence, WB2 (0.5 ppm PQQ (T3)): 41.67^ab % | wooden breast myopathies occurrence, WB3 (0.5 ppm PQQ (T3)): 30.56^ab % | wooden breast myopathies occurrence, WB4 (0.5 ppm PQQ (T3)): 12.50% | wooden breast myopathies scores, WB0 (0.5 ppm PQQ (T3)): 0.00 | wooden breast myopathies scores, WB1 (0.5 ppm PQQ (T3)): 0.92 | wooden breast myopathies scores, WB2 (0.5 ppm PQQ (T3)): 2.50^ab | wooden breast myopathies scores, WB3 (0.5 ppm PQQ (T3)): 1.83 | wooden breast myopathies scores, WB4 (0.5 ppm PQQ (T3)): 0.75 | wooden breast means per treatment (WB) (0.5 ppm PQQ (T3)): 2.36^b | change in proportion of WB2 breast fillets with supplementation (1 ppm PQQ): +50% | change in proportion of WB4 breast fillets with supplementation (1 ppm PQQ): −60% | wooden breast myopathies occurrence, WB0 (1.0 ppm PQQ (T4)): 0.00% | wooden breast myopathies occurrence, WB1 (1.0 ppm PQQ (T4)): 18.05% | wooden breast myopathies occurrence, WB2 (1.0 ppm PQQ (T4)): 46.94^a % | wooden breast myopathies occurrence, WB3 (1.0 ppm PQQ (T4)): 25.00^b % | wooden breast myopathies occurrence, WB4 (1.0 ppm PQQ (T4)): 10.00% | wooden breast myopathies scores, WB0 (1.0 ppm PQQ (T4)): 0.00 | wooden breast myopathies scores, WB1 (1.0 ppm PQQ (T4)): 1.08 | wooden breast myopathies scores, WB2 (1.0 ppm PQQ (T4)): 2.75^a | wooden breast myopathies scores, WB3 (1.0 ppm PQQ (T4)): 1.50 | wooden breast myopathies scores, WB4 (1.0 ppm PQQ (T4)): 0.58 | wooden breast means per treatment (WB) (1.0 ppm PQQ (T4)): 2.26^b | proportions of bad quality fillets (WB3 and WB4) (supplementation with PQQ): lower proportions | proportions of good quality breast fillets (WB0 to WB2) (supplementation with PQQ): higher proportions
